Numbered stars: 1 amine (or outer) side, 2 acyl side, 3 side chain; on linkers, the order of the positions; unused ones are H or OH. Bridge positions count the residues as written; N and C are the ends. Square brackets hold non-standard residues; d marks the D form. Peptide text beside a SMILES is read from it. * marks the point of attachment. X4 = O=C1CN2CCN3CCN(CC(=O)N4CCN(Cc5cc(C[*:1])cc(C[*:2])c5)CC4)CCN(CC2)CC(=O)[O][In]([O]1)[O]C(=O)C3; X11 = O=C(CN1CCN2CCN3CCN(CC1)CC(=O)[O][In]([O]C(=O)C2)[O]C(=O)C3)NCCSCc1cc(CSCCN[*:2])cc(C[*:1])c1; X7 = O=C(CN1CCN2CCN3CCN(CC1)CC(=O)[O][In]([O]C(=O)C2)[O]C(=O)C3)NCCSCc1cc(C[*:1])cc(C[*:2])c1; X1 = O=C(O)CN1CCN(CC(=O)O)CCN(CC(=O)N2CCN(Cc3cc(C[*:1])cc(C[*:2])c3)CC2)CCN(CC(=O)O)CC1; X12 = NCCNCC(CNCCN)C(=O)NCCCOCCOCCOCCCN*; mXylylene = c1cc(C[*:1])cc(C[*:2])c1; Pentanesulfonyl = CCCCCS(=O)(=O)*; Suc = O=C(CCC(=O)[*:2])[*:1]; Nle = CCCC[C@H](N)C(=O)O; Hexanoyl = CCCCCC(=O)*; Sar = CNCC(=O)O
What was measured:
[1] = target: T1, FAP-expressing human WI-38 fibroblasts (Homo sapiens, UniProt Q12884); assay: Competitive FACS binding assay; conditions: pIC50 Category (FACS), competition with 3 nM Cy5-labeled compound, 4° C., 1 hour
T1 construct: FAP-expressing human WI-38 fibroblasts (ECACC) were cultured in EMEM; host or cells: WI-38 human fibroblasts
T1 sequence (Q12884 1-760): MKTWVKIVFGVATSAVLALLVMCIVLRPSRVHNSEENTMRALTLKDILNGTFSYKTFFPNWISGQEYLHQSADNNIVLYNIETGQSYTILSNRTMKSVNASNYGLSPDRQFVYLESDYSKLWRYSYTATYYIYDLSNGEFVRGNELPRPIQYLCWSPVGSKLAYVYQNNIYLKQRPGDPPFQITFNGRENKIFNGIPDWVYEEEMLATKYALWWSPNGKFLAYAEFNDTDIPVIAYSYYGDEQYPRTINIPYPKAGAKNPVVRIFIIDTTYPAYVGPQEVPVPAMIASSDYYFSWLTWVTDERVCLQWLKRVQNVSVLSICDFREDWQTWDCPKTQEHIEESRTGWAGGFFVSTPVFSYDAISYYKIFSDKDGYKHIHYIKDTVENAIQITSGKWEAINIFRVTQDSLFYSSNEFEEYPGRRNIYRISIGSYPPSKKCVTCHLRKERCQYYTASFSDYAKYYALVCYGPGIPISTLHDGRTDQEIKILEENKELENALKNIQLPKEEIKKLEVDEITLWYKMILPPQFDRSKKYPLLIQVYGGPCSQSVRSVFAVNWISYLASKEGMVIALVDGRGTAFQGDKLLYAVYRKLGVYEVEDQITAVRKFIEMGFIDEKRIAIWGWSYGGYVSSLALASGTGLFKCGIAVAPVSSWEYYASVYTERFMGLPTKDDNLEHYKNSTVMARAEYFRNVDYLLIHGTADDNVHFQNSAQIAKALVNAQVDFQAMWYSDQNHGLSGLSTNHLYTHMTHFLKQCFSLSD
Method: Cells were analyzed in an Attune NxT flow cytometer. […]

[2] = target: T2, Human recombinant FAP (Homo sapiens, UniProt Q12884); assay: FRET-based FAP protease activity assay; assay type: biochemical; parameters: purchased R&D systems 3715-SE; conditions: pIC50 Category (Activity), FRET substrate, 37° C.
T2 sequence (Q12884 1-760): T1 sequence (Q12884 1-760)

[3] = target: T2, Human recombinant FAP; assay: Surface plasmon resonance (Biacore) assay; assay type: binding

CCCCCS(=O)(=O)N[C@H]1CSCc2cc(cc(CN3CCN(C(=O)CN4CCN(CC(=O)O)CCN(CC(=O)O)CCN(CC(=O)O)CC4)CC3)c2)CSC[C@@H](C(=O)N[C@@H](CC(=O)O)C(=O)O)NC(=O)[C@H](Cc2ccccc2)NC(=O)[C@H](CCC(N)=O)NC(=O)[C@H]([C@@H](C)O)NC(=O)[C@@H]2CCCN2C(=O)[C@@H]2CCCN2C1=O [3BP-3692, Pentyl-SO2-[Cys(tMeBn(DOTA-PP))-Pro-Pro-Thr-Gln-Phe-Cys]-Asp-NH2] (Pentanesulfonyl-CPPTQFCD-OH; linker 1-7 via X1)
< 10 nM: IC50 [1] | IC50 [2] | Kd [3]

CCCCCC(=O)N[C@H]1CSCc2cc(CSCCNC(=O)CN3CCN4CCN5CCN(CC3)CC(=O)[O][In]([O]C(=O)C4)[O]C(=O)C5)cc(c2)CSC[C@@H](C(N)=O)NC(=O)[C@H](Cc2ccccc2)NC(=O)[C@H](CCC(N)=O)NC(=O)[C@H]([C@@H](C)O)NC(=O)[C@@H]2CCCN2C(=O)[C@@H]2CCCN2C1=O [3BP-3712, Hex-[Cys(tMeBn(InDOTA-AET))-Pro-Pro-Thr-Gln-Phe-Cys]-NH2]
< 10 nM: IC50 [1] | IC50 [2] | Kd [3]

CCCCCC(=O)N[C@H]1CSCc2cc(CSCCNC(=O)CN3CCN4CCN5CCN(CC3)CC(=O)[O][In]([O]C(=O)C4)[O]C(=O)C5)cc(c2)CSCCNC(=O)[C@H](Cc2ccccc2)NC(=O)[C@H](CCC(N)=O)NC(=O)[C@H]([C@@H](C)O)NC(=O)[C@@H]2CCCN2C(=O)[C@@H]2CCCN2C1=O [3BP-3713, Hex-[Cys(tMeBn(InDOTA-AET))-Pro-Pro-Thr-Gln-Phe-AET]] (Hexanoyl-CPPTQF; linker 1-C via X11)
< 10 nM: IC50 [1] | IC50 [2] | Kd [3]

CCCCCC(=O)N[C@H]1CSCc2cc(CSCCNC(=O)CN3CCN4CCN5CCN(CC3)CC(=O)[O][In]([O]C(=O)C4)[O]C(=O)C5)cc(c2)CSC[C@@H](C(=O)NCC(=O)O)NC(=O)[C@H](Cc2ccccc2)NC(=O)[C@H](CCC(N)=O)NC(=O)[C@H]([C@@H](C)O)NC(=O)[C@@H]2CCCN2C(=O)[C@@H]2CCCN2C1=O [3BP-3714, Hex-[Cys(tMeBn(InDOTA-AET))-Pro-Pro-Thr-Gln-Phe-Cys]-Gly-OH] (Hexanoyl-CPPTQFCG-OH; linker 1-7 via X7)
< 10 nM: IC50 [1] | IC50 [2] | Kd [3]

CCCCCC(=O)N[C@H]1CSCc2cc(CSCCNC(=O)CN3CCN4CCN5CCN(CC3)CC(=O)[O][In]([O]C(=O)C4)[O]C(=O)C5)cc(c2)CSC[C@@H](C(=O)N(C)CC(=O)O)NC(=O)[C@H](Cc2ccccc2)NC(=O)[C@H](CCC(N)=O)NC(=O)[C@H]([C@@H](C)O)NC(=O)[C@@H]2CCCN2C(=O)[C@@H]2CCCN2C1=O [3BP-3715, Hex-[Cys(tMeBn(InDOTA-AET))-Pro-Pro-Thr-Gln-Phe-Cys]-Nmg-OH]
< 10 nM: IC50 [1] | IC50 [2] | Kd [3]

CCCCCC(=O)N[C@H]1CSCc2cc(CSCCNC(=O)CN3CCN4CCN5CCN(CC3)CC(=O)[O][In]([O]C(=O)C4)[O]C(=O)C5)cc(c2)CSC[C@@H](C(=O)O)NC(=O)[C@H](Cc2ccccc2)NC(=O)[C@H](CCC(N)=O)NC(=O)[C@H]([C@@H](C)O)NC(=O)[C@@H]2CCCN2C(=O)CN(C)C1=O [3BP-3716, Hex-[Cys(tMeBn(InDOTA-AET))-Nmg-Pro-Thr-Gln-Phe-Cys]-OH] (Hexanoyl-C[Sar]PTQFC-OH; linker 1-7 via X7)
< 10 nM: IC50 [1] | IC50 [2] | Kd [3]

CCCCCS(=O)(=O)N[C@H]1CSCc2cc(cc(CN3CCN(C(=O)CN4CCN5CCN6CCN(CC4)CC(=O)[O][In]([O]C(=O)C6)[O]C(=O)C5)CC3)c2)CSC[C@@H](C(=O)N[C@@H](CC(=O)O)C(N)=O)NC(=O)[C@H](Cc2ccccc2)NC(=O)[C@H](CCC(N)=O)NC(=O)[C@H]([C@@H](C)O)NC(=O)[C@@H]2CCCN2C(=O)[C@@H]2CCCN2C1=O [3BP-3717, Pentyl-SO2-[Cys(tMeBn(InDOTA-PP))-Pro-Pro-Thr-Gln-Phe-Cys]-Asp-NH2] (Pentanesulfonyl-CPPTQFCD-NH2; linker 1-7 via X4)
< 10 nM: IC50 [1] | IC50 [2] | Kd [3]

CCCCCC(=O)N[C@H]1CSCc2cc(CSCCNC(=O)CN3CCN(CC(=O)O)CCN(CC(=O)O)CCN(CC(=O)O)CC3)cc(c2)CSC[C@@H](C(=O)NCCC(N)=O)NC(=O)[C@H](Cc2ccccc2)NC(=O)[C@H](CCC(N)=O)NC(=O)[C@H]([C@@H](C)O)NC(=O)[C@@H]2CCCN2C(=O)[C@@H]2CCCN2C1=O [3BP-3736, Hex-[Cys(tMeBn(DOTA-AET))-Pro-Pro-Thr-Gln-Phe-Cys]-Bal-NH2]
< 10 nM: IC50 [1] | IC50 [2] | Kd [3]

CCCCCC(=O)N[C@H]1CSCc2cc(CSCCNC(=O)CN3CCN(CC(=O)O)CCN(CC(=O)O)CCN(CC(=O)O)CC3)cc(c2)CSC[C@@H](C(=O)N(C)CC(N)=O)NC(=O)[C@H](Cc2ccccc2)NC(=O)[C@H](CCC(N)=O)NC(=O)[C@H]([C@@H](C)O)NC(=O)[C@@H]2CCCN2C(=O)[C@@H]2CCCN2C1=O [3BP-3737, Hex-[Cys(tMeBn(DOTA-AET))-Pro-Pro-Thr-Gln-Phe-Cys]-Nmg-NH2]
< 10 nM: IC50 [1] | IC50 [2] | Kd [3]

CCCCCC(=O)N[C@H]1CSCc2cc(CSCCNC(=O)CN3CCN4CCN5CCN(CC3)CC(=O)[O][Ga]([O]C(=O)C4)[O]C(=O)C5)cc(c2)CSC[C@@H](C(=O)O)NC(=O)[C@H](Cc2ccccc2)NC(=O)[C@H](CCC(N)=O)NC(=O)[C@H]([C@@H](C)O)NC(=O)[C@@H]2CCCN2C(=O)[C@@H]2CCCN2C1 [3BP-3949, Gallium-Complex of Hex-[Cys(tMeBn(DOTA-AET))-Pro-Pro-Thr-Gln-Phe-Cys]-OH]
< 10 nM: IC50 [1] | IC50 [2] | Kd [3]

CCCCCC(=O)N[C@H]1CSCc2cc(CSCCNC(=O)C(CNCCN)CNCCN)cc(c2)CSC[C@@H](C(=O)O)NC(=O)[C@H](Cc2ccccc2)NC(=O)[C@H](CCC(N)=O)NC(=O)[C@H]([C@@H](C)O)NC(=O)[C@@H]2CCCN2C(=O)[C@@H]2CCCN2C1=O [3BP-4063, Hex-[Cys-(tMeBn(N4Ac-AET))-Pro-Pro-Thr-Gln-Phe-Cys]-OH]
< 10 nM: IC50 [1] | IC50 [2] | Kd [3]

CCCCCC(=O)N[C@H]1CSCc2cc(CSCCNC(=O)COCCOCCNC(=O)C(CNCCN)CNCCN)cc(c2)CSC[C@@H](C(=O)O)NC(=O)[C@H](Cc2ccccc2)NC(=O)[C@H](CCC(N)=O)NC(=O)[C@H]([C@@H](C)O)NC(=O)[C@@H]2CCCN2C(=O)[C@@H]2CCCN2C1=O [3BP-4088, Hex-[Cys-(tMeBn(N4Ac-O2Oc-AET))-Pro-Pro-Thr-Gln-Phe-Cys]-OH]
< 10 nM: IC50 [1] | IC50 [2] | Kd [3]

CCCC[C@H](NC(=O)CCC(=O)NCCCOCCOCCOCCCNC(=O)C(CNCCN)CNCCN)C(=O)N[C@H]1CSCc2cccc(c2)CSC[C@@H](C(=O)O)NC(=O)[C@H](Cc2ccccc2)NC(=O)[C@H](CCC(=O)O)NC(=O)[C@H]([C@@H](C)O)NC(=O)[C@@H]2CCCN2C(=O)[C@@H]2CCCN2C1=O [3BP-4161, N4Ac-Ttds-Nle-[Cys-(3MeBn)-Pro-Pro-Thr-Glu-Phe-Cys]-OH] ({X12-Suc}-[Nle]CPPTEFC-OH; linker 2-8 via mXylylene)
< 10 nM: IC50 [1] | IC50 [2] | Kd [3]

Source: patent publication US20220315554A1, “COMPOUNDS COMPRISING A […] LIGAND AND USE THEREOF” (priority 2019, published 2022)
